From patent publication US20060128773A1, “Wood preservatives and waterproofing compositions and processes” (priority 2004, published 2006)

What was measured:
[1] = Leaching study of treated wood test blocks into water (Example 2); format: physicochemical
Method: Wood test blocks prepared in accordance with Example 1, were subjected to a leaching study.
In this leaching study the following procedure was observed. • 1. The wood test block was placed in 500 ml plastic containers with screw caps. • 2. Water was added to the container to over flowing and the container was sealed. • 3. The containers were stored at room temperature. • 4.

[2] = Leaching study of treated wood test blocks into water (Example 4); format: physicochemical
Method: In this example test blocks were prepared in accordance with the procedure of Example 1 and subjected a leaching study using the following procedure. • 1. The wood test blocks were placed in 500 ml plastic containers with screw caps. • 2. Water was added to the containers to over flowing and the container was sealed. • 3. The containers were stored at room temperature.
4. After two days the containers were opened and the leachate was analyzed for active quaternary compound (QAC) using a Hach DR/2400 Spectrophotometer.

EN[…] = settings: ATCC # 13048; lowest concentration which inhibits growth in all replicates
ESCHERICHIA = settings: ATCC # 11229; lowest concentration which inhibits growth in all replicates
LISTERIA MONOCYTOGENES = settings: ATCC # 35152; lowest concentration which inhibits growth in all replicates
PSEUDOMONAS AERUGINOSA [3] = settings: ATCC # 15442; lowest concentration which inhibits growth in all replicates
SERRATIA MARCESANS = settings: ATCC # 13880; lowest concentration which inhibits growth in all replicates
ST[…] = settings: ATCC # 6538; lowest concentration which inhibits growth in all replicates
[4] = tested on: METHICILLIAN-RESISTANT STAPHYLOCOCCUS AUREUS; settings: ATCC # 33593; lowest concentration which inhibits growth in all replicates
AS[…] = settings: ATCC # 16424; lowest concentration which inhibits growth in all replicates
CANDIDA ALBICANS = settings: ATCC # 10231; lowest concentration which inhibits growth in all replicates
PSEUDOMONAS AERUGINOSA [5] = settings: ATCC # 15442; ten-minute contact time
SALMONELLA CHOLERAESUIS = settings: ATCC # 10708; ten-minute contact time
STAPHYLOCOCCUS AUREUS = settings: ATCC # 6538; ten-minute contact time

Substance	leaching of quaternary ammonium compound relative to the ADBAS compound ([1]; Example 2, ratio of averages) [times]	AVERAGE active quaternary compound in leachate, FINAL DATE May 8, 2004 ([1]; average of three blocks, water, room temperature, after two days) [PPM QAC]	leaching relative to the ADBAS compound ([2]; Example 4, ratio of averages) [times]	AVERAGE active quaternary compound in leachate, FINAL DATE Sep. 5, 2004 ([2]; average of three blocks, water, room temperature, start Sep. 1, 2004) [PPM QAC]	Minimum Inhibitory Concentration (MIC) CONCENTRATION (EN[…]) [PPM]	Minimum Inhibitory Concentration (MIC) CONCENTRATION (ESCHERICHIA) [PPM]	Minimum Inhibitory Concentration (MIC) CONCENTRATION (LISTERIA MONOCYTOGENES) [PPM]	Minimum Inhibitory Concentration (MIC) CONCENTRATION (PSEUDOMONAS AERUGINOSA [3]) [PPM]	Minimum Inhibitory Concentration (MIC) CONCENTRATION (SERRATIA MARCESANS) [PPM]	Minimum Inhibitory Concentration (MIC) CONCENTRATION (ST[…]) [PPM]	Minimum Inhibitory Concentration (MIC) CONCENTRATION [4] [PPM]	Minimum Inhibitory Concentration (MIC) CONCENTRATION (AS[…]) [PPM]	Minimum Inhibitory Concentration (MIC) CONCENTRATION (CANDIDA ALBICANS) [PPM]	AOAC USE-DILUTION VALUES CONCENTRATION (PSEUDOMONAS AERUGINOSA [5]) [PPM]	AOAC USE-DILUTION VALUES CONCENTRATION (SALMONELLA CHOLERAESUIS) [PPM]	AOAC USE-DILUTION VALUES CONCENTRATION (STAPHYLOCOCCUS AUREUS) [PPM]
alkyl dimethyl benzyl ammonium chloride [ADBAC]	3.25	45.24	8.1	480.0	–	–	–	–	–	–	–	–	–	–	–	–
alkyl dimethyl benzyl ammonium saccharinate [ADBAS]	–	–	–	–	10	10	1	100	10	1	0.5	10	100	700	600	600
